According to EP4782434A1, “N-SULFONYL CARBOXAMIDE COMPOUND, AND PREPARATION METHOD THEREFOR AND USE THEREOF” (Nutshell Therapeutics (Shanghai) Co., Ltd., priority 2023, dated 2025):

Legend:
DLD-1 BRCA2-/- cells = assay: DLD-1 BRCA2-/- cell proliferation assay (CellTiter-Glo, 10 days incubation); type: cell-based; details: Homo sapiens, 240 h, DLD-1 BRCA2-/- cell line, total incubation period of 10 days, read-out: DLD1 BRCA2^-/- IC50
Text: The anti-proliferative effect of the compounds on the human colorectal adenocarcinoma cell line DLD-1 BRCA2^-/- method.
• DLD-1 (purchased from ATCC, Cat. No.: CCL-221, Batch No.: 70033255); • RPMI1640 (purchased from Invitrogen, Cat. No.: 11875-085); • 0.25% Trypsin-EDTA (purchased from Invitrogen, Cat. No.: 25200-072); • Penicillin-Streptomycin solution (purchased from Hyclone, Cat. No.: SV30010); • FBS (purchased from BI, Cat. No.: 04-002-1A); • DMSO (purchased from Sigma, Cat. No.: D4540-1L); • 96-well plate (purchased from Corning, Cat. No.: CLS3903); • CellTiter-Glo reagent (purchased from Promega, Cat. No.: G7558).
The anti-proliferative effect of the compounds on a human colorectal adenocarcinoma cell line was evaluated using an ATP quantification method, wherein the measured activity correlates well with the number of viable cells. The genetically edited cell line DLD-1 BRCA2^-/- was cultured in RPMI 1640 medium (Invitrogen, 11875-085) supplemented with 10% (v/v) fetal bovine serum (BI, 04-002-1A). The cell line was cultured according to the standard instructions of the American Type Culture Collection (ATCC) and identified via short tandem repeat (STR) genotyping.
In the proliferation assay, cells were harvested and resuspended in cell culture medium. Cell density was determined using a cell counter. An appropriate volume of cell suspension was aspirated from the centrifuge tube to prepare a plating working solution (150 cells/100 µL for the DLD-1 BRCA2^-/- cell line). 100 µL of the cell suspension was seeded into each well of a 96-well plate (Corning, 3603) and incubated overnight in an incubator. The diluted test compound solutions were added to the wells. On the fourth and seventh days of compound incubation, the medium was replaced with fresh culture medium, and the compounds were re-administered, for a total incubation period of 10 days. Following incubation, the cell culture plates were removed and equilibrated to room temperature. 100 µL of CellTiter-Glo (Promega, G7558) was added to each well, and the plate was incubated at room temperature for 30 minutes. Data were read using a microplate reader (PerkinElmer, Enspire) in 96-well luminescence mode. Data analysis, curve fitting, and reporting were performed using the dose-response one-site 205 model of IDBS XL fit. Table 2: Proliferation inhibitory activity of compounds against DLD-1 BRCA2-/- cells

[1] = tested on: Theta-mediated end joining (TMEJ) process in HEK293T cells; assay: TMEJ reporter assay (NanoGlo luciferase); type: cell-based; details: Homo sapiens, HEK-293T, HEK293T cells electroporated with TMEJ substrate, 24 hours
Protocol: The inhibitory effect of the compounds on the Theta-mediated end joining (TMEJ) process was evaluated.
(1) HEK293T cells were cultured in DMEM supplemented with 10% heat-inactivated fetal bovine serum (FBS) and 1% penicillin-streptomycin (PS). (2) Prior to startup, the Neon transfection system was disinfected, and E2 and R buffers were equilibrated to room temperature. (3) Culture medium without antibiotics was pre-warmed. (4) Cells in the flask reaching 80-90% confluency were trypsinized, neutralized with culture medium, centrifuged, and counted. (5) For transfection using a 100 µL electroporation tip, 2 × 10^6 cells were taken, washed once with DPBS (without Mg^2+ and Ca^2+), centrifuged at 1000 rpm for 5 min, and the supernatant was discarded. The number of cells and volume may be increased as required. (6) The Neon system was set up; a Neon tube was inserted into the Neon pipette and E2 buffer was added. (7) 10 µg of TMEJ substrate was added to 100 µL of R solution; the volume may be increased as required. (8) Cells were resuspended in DNA buffer, and electroporation was initiated according to the following parameters:
(9) The cells were loaded into antibiotic-free culture medium and mixed gently. (10) Steps (8)-(9) were repeated as necessary, and cells were seeded into 384-well plates at a density of 40,000 cells/well in 40 µL of culture medium. (11) The plates were incubated in a humidified CO2 incubator at 37°C for 24 hours. (12) NanoGlo reagent was warmed to room temperature, and NanoGlo buffer was mixed with the substrate at a ratio of 50:1. (13) The cell culture plates were equilibrated at room temperature for 10 minutes. (14) 40 µL of NanoGlo substrate buffer was added to each well, followed by shaking at 300 rpm for 3 minutes protected from light. (15) Signals were read via a BMG PHERAstar FSX.

Polθ ATPase = molecular target: T1, Polθ ATPase (Homo sapiens, UniProt O75417); assay: Polθ ATPase activity assay (ADP-Glo Kinase Assay kit); type: biochemical; details: truncated POLQ-N protein (aa 1-894) 1 nM, 50 nM ssDNA, 50 µM ATP
T1 construct: purified truncated POLQ-N protein (aa 1-894, N-terminal 6-His tag); 6-His (N)
T1 sequence (O75417 1-894): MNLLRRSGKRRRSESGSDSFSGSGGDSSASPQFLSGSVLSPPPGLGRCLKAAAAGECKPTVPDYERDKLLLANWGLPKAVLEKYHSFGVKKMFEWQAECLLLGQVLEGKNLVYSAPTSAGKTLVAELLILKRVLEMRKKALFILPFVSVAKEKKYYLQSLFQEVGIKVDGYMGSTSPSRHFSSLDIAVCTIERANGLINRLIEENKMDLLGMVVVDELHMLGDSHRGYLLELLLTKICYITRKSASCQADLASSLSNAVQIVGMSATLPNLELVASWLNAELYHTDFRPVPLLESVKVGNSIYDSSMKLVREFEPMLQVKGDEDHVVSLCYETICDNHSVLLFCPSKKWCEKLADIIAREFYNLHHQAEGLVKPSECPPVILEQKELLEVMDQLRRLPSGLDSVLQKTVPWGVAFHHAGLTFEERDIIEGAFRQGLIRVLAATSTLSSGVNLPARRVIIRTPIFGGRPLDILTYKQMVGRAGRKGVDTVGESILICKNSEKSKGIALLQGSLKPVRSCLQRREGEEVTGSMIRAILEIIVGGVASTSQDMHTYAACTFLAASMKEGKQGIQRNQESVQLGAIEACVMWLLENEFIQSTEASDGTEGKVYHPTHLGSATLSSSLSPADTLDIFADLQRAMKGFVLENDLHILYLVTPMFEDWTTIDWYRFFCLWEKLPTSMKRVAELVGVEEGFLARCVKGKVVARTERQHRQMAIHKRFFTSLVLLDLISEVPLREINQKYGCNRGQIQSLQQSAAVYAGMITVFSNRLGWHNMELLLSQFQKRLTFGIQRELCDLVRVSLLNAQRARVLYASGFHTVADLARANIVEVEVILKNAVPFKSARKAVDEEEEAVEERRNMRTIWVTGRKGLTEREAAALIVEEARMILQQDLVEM
Protocol: The inhibitory efficiency of the compounds of formula (I) against Polθ ATPase activity was determined using the ADP-Glo Kinase Assay kit (Promega, V9101). […] The starting (final) concentration was 100 nM, followed by a 3-fold serial dilution for a total of 10 concentration points in duplicate (n=2). 5 μL of purified […], N-terminal 6-His tag) was added to each well. After centrifugation at 1000 rpm for 1 minute, the plate was incubated at 25°C for 10 minutes. 5 μL of substrate reaction solution (containing ATP & ssDNA) was added to each well, and the reaction was carried out at 25°C for 60 minutes. 5 μL of ADP-Glo Reagent was added to each well. After centrifugation at 1000 rpm for 1 minute, the plate was incubated at 25°C for 40 minutes. 10 μL of detection solution was added to each well. After centrifugation at 1000 rpm for 1 minute, the plate was incubated at 25°C for 40 minutes. Luminescence signals were recorded using a microplate reader (BMG, PHERAstar FSX). The final reaction system contained 1 nM of POLQ-N enzyme; 50 nM of ssDNA ([NT]); 50 μM of ATP; and 1% DMSO. The inhibition percentage (%) of the compound at each concentration was calculated using the RFU values normalized against the control wells within each assay plate. Table 1: Inhibitory activity of compounds against Polθ ATPase

Structure (SMILES)	IC50 (DLD-1 BRCA2-/- cells) [nM]	IC50 [1] [nM]	IC50 (Polθ ATPase; class symbols) [nM]	IC50 (Polθ ATPase; specific values) [nM]
COc1ccc(C(F)F)cc1-c1cc(C)ccc1C(=O)NS(=O)(=O)Cc1ccc(COC(F)F)cc1 [cpd-15, N-((4-((Difluoromethoxy)methyl)benzyl)sulfonyl)-5'-(difluoromethyl)-2'-methoxy-5-methyl-[1,1'-biphenyl]-2-carboxamide]	154			
COc1cnc(C(F)F)cc1-c1cc(C)ccc1C(=O)NS(=O)(=O)Cc1ccc([C@@H](C)OC)cc1 [cpd-8, (R)-2-(2-(Difluoromethyl)-5-methoxypyridin-4-yl)-N-((4-(1-methoxyethyl)benzyl)sulfonyl)-4-methylbenzamide]	57	2	≤ 2	0.72
[2H]C([2H])([2H])O[C@@H](C)c1ccc(CS(=O)(=O)NC(=O)c2ccc(C([2H])([2H])[2H])cc2-c2cc(C(F)F)c(F)nc2OC)cc1 [cpd-24, (S)-2-(5-(Difluoromethyl)-6-fluoro-2-methoxypyridin-3-yl)-N-((4-(1-(methoxy-d3)ethyl)benzyl)sulfonyl)-4-(methyl-d3)benzamide]	33			
[2H]c1c([2H])c([C@H](C)OC([2H])([2H])[2H])c([2H])c([2H])c1CS(=O)(=O)NC(=O)c1ccc(C([2H])([2H])[2H])cc1-c1cc(Cl)ncc1OC [cpd-22, (S)-2-(2-Chloro-5-methoxypyridin-4-yl)-N-(4-(1-(methoxy-d3)ethyl)(phenyl-2,3,5,6-d4)methylsulfonyl)-4-(methyl-d3)benzamide]	48	1.3	≤ 2	1.1
COc1ccc(C(F)F)cc1-c1cc(CC(=O)N(C)C2CC2)ccc1C(=O)NS(=O)(=O)Cc1ccc(C(C)C)cc1 [cpd-12, 5-(2-(Cyclopropyl(methyl)amino)-2-oxoethyl)-5'-(difluoromethyl)-N-((4-isopropylbenzyl)sulfonyl)-2'-methoxy-[1,1'-biphenyl]-2-carboxamide]	70		≤ 2	1
COc1ccc(C(F)F)cc1-c1cc(C)ncc1C(=O)NS(=O)(=O)Cc1ccc([C@H](C)OC)cc1 [cpd-5, (S)-4-(5-(Difluoromethyl)-2-methoxyphenyl)-N-((4-(1-methoxyethyl)benzyl)sulfonyl)-6-methylnicotinamide]	27	1	≤ 2	0.5
COc1ccc(C(F)F)cc1-c1cc(C)ccc1C(=O)NS(=O)(=O)Cc1ccc([C@H](C)OC)cc1 [cpd-3, (S)-5'-(difluoromethyl)-2'-methoxy-N-((4-(1-methoxyethyl)benzyl)sulfonyl)-5-methyl-[1,1'-biphenyl]-2-carboxamide]	24		≤ 2	0.71
COc1ccc(C(F)F)cc1-c1cc(C)ccc1C(=O)NS(=O)(=O)Cc1ccc([C@@H](C)OC)cc1 [cpd-7, (R)-5'-(Difluoromethyl)-2'-methoxy-N-((4-(1-methoxyethyl)benzyl)sulfonyl)-5-methyl-[1,1'-biphenyl]-2-carboxamide]	59		≤ 2	0.71
COc1ccc(C(F)F)cc1-c1cc(C)ccc1C(=O)NS(=O)(=O)Cc1ccc(C(C)OC)nc1 (centres unmarked) [cpd-20, 5'-(Difluoromethyl)-2'-methoxy-N-(((6-(1-methoxyethyl)pyridin-3-yl)methyl)sulfonyl)-5-methyl-[1,1'-biphenyl]-2-carboxamide]			≤ 2	1.4
COc1ccc(C(F)F)cc1-c1cc(Cc2nnc(C)o2)ccc1C(=O)NS(=O)(=O)Cc1ccc(C(C)C)cc1 [cpd-13, 5'-(Difluoromethyl)-N-((4-isopropylbenzyl)sulfonyl)-2'-methoxy-5-((5-methyl-1,3,4-oxadiazol-2-yl)methyl)-[1,1'-biphenyl]-2-carboxamide]	202		≤ 2	0.88
[2H]C([2H])([2H])O[C@@H](C)c1ccc(CS(=O)(=O)NC(=O)c2ccc(C([2H])([2H])[2H])cc2-c2nc(C(F)F)c(F)cc2OC)cc1 [cpd-23, (S)-2-(6-(Difluoromethyl)-5-fluoro-3-methoxypyridin-2-yl)-N-((4-(1-(methoxy-d3)ethyl)benzyl)sulfonyl)-4-(methyl-d3)benzamide]	22			
COc1cnc(C(F)F)cc1-c1cc(C)ncc1C(=O)NS(=O)(=O)Cc1ccc([C@@H](C)OC)cc1 [cpd-10, (R)-2'-(Difluoromethyl)-5'-methoxy-N-((4-(1-methoxyethyl)benzyl)sulfonyl)-6-methyl-[4,4'-bipyridine]-3-carboxamide]	514		≤ 2	1.1
COc1cnc(C(F)F)cc1-c1cc(C)ncc1C(=O)NS(=O)(=O)Cc1ccc([C@H](C)OC)cc1 [cpd-6, (S)-2'-(Difluoromethyl)-5'-methoxy-N-((4-(1-methoxyethyl)benzyl)sulfonyl)-6-methyl-[4,4'-bipyridine]-3-carboxamide]	189		≤ 2	0.6
COc1ccc(C(F)F)cc1-c1cc(C)ccc1C(=O)NS(=O)(=O)Cc1ccc(C(OC)C(F)(F)F)cc1 (centres unmarked) [cpd-14, 5'-(Difluoromethyl)-2'-methoxy-5-methyl-N-((4-(2,2,2-trifluoro-1-methoxyethyl)benzyl)sulfonyl)-[1,1'-biphenyl]-2-carboxamide]	108		≤ 2	1.6
COc1ccc(C(F)F)cc1-c1cc(C)ncc1C(=O)NS(=O)(=O)Cc1ccc([C@@H](C)OC)cc1 [cpd-9, (R)-4-(5-(Difluoromethyl)-2-methoxyphenyl)-N-((4-(1-methoxyethyl)benzyl)sulfonyl)-6-methylnicotinamide]	63		≤ 2	0.52
